The source made the active and inactive calls. The calls are words filed in the database; no cut-off is given here.
How the values were obtained:
[1] = target: Fibroblast growth factor receptor 1 (Homo sapiens) (UniProt P11362); settings: dose 1000.0 nM
Description: Inhibition of FGFR1 (unknown origin) at 1000 nM by caliper mobility shift assay relative to control

NCI-H1581 [2] = assay: cells; settings: Homo sapiens, NCI-H1581, 48 h
Description: Antiproliferative activity against human NCI-H1581 cells assessed as inhibition of cell proliferation incubated for 48 hrs by MTT assay

A549 = assay: cells; settings: Homo sapiens, A549, 48 h
Description: Antiproliferative activity against human A549 cells assessed as inhibition of cell proliferation incubated for 48 hrs by MTT assay

[3] = target: Fibroblast growth factor receptor 1 (Homo sapiens) (UniProt P11362); assay: Reversible inhibition of FGFR1 (unknown origin) phosphorylation in human NCI-H1581 cells at 1 uM preincubated with compound for 2 hrs followed by compound washout and measured after 0.5 hrs by Western blotting analysis; assay type: cell-based
NCI-H1581 [4] = assay: Antitumor activity against human NCI-H1581 cells xenografted in BALB/c nude mouse assessed as tumor growth inhibition at 60 mg/kg relative to control; assay type: functional; settings: read-out: TGI

Sequence of Fibroblast growth factor receptor 1 (Homo sapiens) (P11362 22-822 limits assumed): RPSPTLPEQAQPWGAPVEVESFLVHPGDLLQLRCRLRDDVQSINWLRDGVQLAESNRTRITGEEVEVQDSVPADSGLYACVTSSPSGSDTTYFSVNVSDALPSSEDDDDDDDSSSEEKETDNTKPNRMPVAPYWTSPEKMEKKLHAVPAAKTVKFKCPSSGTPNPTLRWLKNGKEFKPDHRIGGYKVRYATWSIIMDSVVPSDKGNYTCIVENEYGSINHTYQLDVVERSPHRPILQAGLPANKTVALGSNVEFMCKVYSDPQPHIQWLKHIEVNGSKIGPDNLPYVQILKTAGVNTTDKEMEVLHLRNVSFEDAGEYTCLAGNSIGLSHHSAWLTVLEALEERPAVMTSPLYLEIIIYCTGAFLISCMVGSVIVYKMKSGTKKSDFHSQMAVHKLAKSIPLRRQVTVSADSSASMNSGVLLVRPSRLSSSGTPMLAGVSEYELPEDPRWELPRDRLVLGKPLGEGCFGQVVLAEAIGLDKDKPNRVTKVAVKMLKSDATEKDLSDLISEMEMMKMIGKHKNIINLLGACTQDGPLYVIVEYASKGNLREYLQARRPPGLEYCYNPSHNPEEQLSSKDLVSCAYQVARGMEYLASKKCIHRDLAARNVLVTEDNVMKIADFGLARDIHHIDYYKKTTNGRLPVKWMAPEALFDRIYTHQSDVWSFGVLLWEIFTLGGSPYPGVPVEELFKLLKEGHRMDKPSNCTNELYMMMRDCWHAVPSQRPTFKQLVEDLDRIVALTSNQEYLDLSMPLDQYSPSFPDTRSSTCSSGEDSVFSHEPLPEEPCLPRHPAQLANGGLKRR

inhibition [1] [%]	IC50 (NCI-H1581 [2]) [nM]	IC50 (A549) [nM]	inhibition [3]	SMILES	inhibition in vivo at 60 mg/kg (NCI-H1581 [4]) [%]
–	170	9030	–	C=CC(=O)Nc1ccc(Nc2nc(Nc3ccc(N4CCN(CC)CC4)c(OC)c3)ncc2Cl)cc1Cl	–
–	120	12100	–	C=CC(=O)Nc1ccc(Nc2nc(Nc3ccc(N4CCC(N(C)C)CC4)c(OC)c3)ncc2Cl)cc1Cl	–
–	130	4150	–	C=CC(=O)Nc1ccc(Nc2nc(Nc3ccc(N4CCN(C)CC4)c(F)c3)ncc2Cl)cc1Cl	–

More lines, now with the values behind:

SMILES	inhibition [1] [%]	IC50 (NCI-H1581 [2]) [nM]	IC50 (A549) [nM]	inhibition [3]	inhibition in vivo at 60 mg/kg (NCI-H1581 [4]) [%]
C=CC(=O)Nc1ccccc1Nc1nc(Nc2ccc(N3CCN(C)CC3)cc2)ncc1Cl	94.9	–	–	–	–
C=CC(=O)Nc1ccc(Nc2nc(Nc3ccc(N4CCN(C)CC4)nc3)ncc2Cl)cc1Cl	–	470	3180	–	–
Cc1ccc(C(=O)Nc2ccc(CN3CCN(C)CC3)c(C(F)(F)F)c2)cc1C#Cc1cnc2cccnn12	–	–	–	inactive	–
C=CC(=O)N1CC[C@H](n2nc(C#Cc3cc(OC)cc(OC)c3)c3c(N)ncnc32)C1 [FUTIBATINIB]	–	5	> 20000	–	54
C=CC(=O)Nc1ccc(Nc2nc(Nc3ccc(N4C[C@@H](C)N[C@@H](C)C4)cc3)ncc2Cl)cc1Cl	–	210	1180	–	–

Reference: ChEMBL document CHEMBL6103630, “Discovery of Novel 2,4,5-Trisubstituted Pyrimidine Derivatives as Potent and Selective FGFR Inhibitors against Gatekeeper Mutants for the Treatment of NSCLC” (J Med Chem, 2025)
